The values below come from patent US8895598B2, “Methods of treating a flaviviridae family viral infection, compositions for treating a flaviviridae family viral infection, and screening assays for identifying compositions for treating a flaviviridae family viral infection” (priority 2007, dated 2014).

Data set [1] deals with HCV RNA replication (full-length HCV RNA genome harboring a Luciferase reporter gene). Briefly: Luciferase reporter-linked HCV replication assay in Huh7.5 cells. The note with it: for activity at 5 µM / activity at 10 µM: Hepatitis C virus, Huh7.5. It counts as cell-based, Hepatitis C Virus. As to the method:
For example, HCV replication assays employing a luciferase reporter-linked HCV genome in the presence of various combinations of clemizole and an NS3 protease inhibitor (SCH503034) are shown in FIGS. 1A and 1B. In such assays, luciferase activity is directly proportional to HCV RNA genome replication. […] The results can be plotted on a linear or log scale as a function of drug concentrations to generate replication inhibition curves.
Luciferase assays were performed at 72 hr.
Medium was changed daily.
The experiment was repeated four times, each time with triplicates.
Background: Reporter assays use an easily measured gene product as a stand-in for the process of interest.

Data set [2] can be described thus: Alamar Blue-based viability assay. The note with it: human. On the procedure:
(§1) The in vivo antiviral effect on HCV RNA replication of the inhibitory compounds identified in the above screen was measured. Following electroporation with a full-length HCV RNA genome harboring a Luciferase reporter gene^28, Huh7.5 cells were grown in the presence of increasing concentrations of these compounds. Luciferase assays were performed at 72 hr. In parallel, the viability of cells in the presence of the compounds was assessed by an Alamar Blue-based assay.
(§2) Following 72 hrs of treatment, cells were incubated for 3 hrs at 37° C. in the presence of 10% Alamar Blue reagent (TREK Diagnostic Systems). Plates were then scanned and fluorescence was detected by using FLEXstation II 384 (Molecular Devices, Inc.).
A general note: Alamar Blue is a resazurin reagent that responds to reducing activity.

The subject of another data set is HCV (genotype 4). Briefly: Treatment of patients chronically infected with HCV, serum HCV viral load. It counts as in vivo, human. As to the method: Three patients chronically-infected with HCV (genotype 4) were treated in accordance with an embodiment of the method of the invention. All were male and had baseline ALT elevations and significant HCV viral loads ranging from 290,000-730,000 IU/ml.
After the first four weeks of clemizole monotherapy, pegylated interferon was added.

For data set [3] the following is noted: human, in vivo; cited from earlier work.
The conditions of data set [4]: cited from earlier work.
For data set [5], the target named is T1, W55R NS4B mutant binding to HCV RNA (Hepatitis C virus genotype 1a, UniProt P27958, A1893V/D1840G/F1898S/L1839I/R1905H/S1900A/W1766R).
T1 construct: made in house; host or cells: coupled transcription/translation rabbit reticulocyte system (Promega) with canine microsomal membranes
As to the kind of experiment: Microfluidic in vitro RNA binding assay of W55R NS4B mutant. The note with it: in the presence of 10 nM clemizole.

Data set [6] deals with infectious HCV clone (J6/JFH). It counts as cell-based, Hepatitis C Virus. The conditions noted are these: FIG. 15, 72 hours.
Another data set has as its system W55R mutant J6/JFH RNA. As to the kind of experiment: Replication assays with the clemizole-resistant W55R mutant. It counts as cell-based, Hepatitis C Virus.
For the next data set, the system named is Huh7.5 cells. As to the kind of experiment: Alamar Blue-based viability assay. The note with it: HCV-infected Huh7.5 cells, FIG. 15. On the procedure: as §1, §2
The target in data set [7] is HuR binding to the consensus 4A RNA sequence (Homo sapiens, UniProt Q15717). Briefly: Specificity: HuR binding to 4A RNA by microfluidics. The conditions noted are these: hits at 0.1 mM. On the procedure: Next a standard 25 μL TNT T7 coupled wheat germ extract mixture (Promega) was prepared and spiked with 1 μL tRNALys-bodipy-fl (Promega) and 2 μL of plasmid DNA template coding for the appropriate protein (HuR, HuD or Gus). The mixture was immediately loaded into the device and flushed for 5 min, after which the chamber valves were opened allowing for dead end filling of the chambers with wheat germ extract. The chamber valves were again closed and flushing continued for an additional 5 min. Next the segregation valves separating each unit cell were closed, followed by opening of the chamber valves allowing for equilibration of the unit cell by diffusion. The entire device was heated to 30° C. on a temperature controlled microscope stage and incubated for up to 90 min to complete protein synthesis, binding of protein to the surface bound biotinylated-5-histidine antibody, solvation of target RNA, and equilibration of proteins and target RNA. […] Radial closure prevents solvent pockets from forming between the two interfaces and effectively creates zero dead volume while preserving the equilibrium concentrations of the molecular interactions to be detected. This was followed by a 5 min PBS wash to remove untapped unbound material. The device was then imaged on a modified array WoRxe (AppliedPrecision) microarray scanner to detect protein synthesis and the trapped molecules. […]

The target in data set [8] is NS4B binding to the 3′ terminus of the HCV negative strand RNA (Hepatitis C virus genotype 1a, UniProt P27958). Briefly: Microfluidic (MITOMI) in vitro RNA binding assay of NS4B.
A further data set relates to R214Q mutant HCV RNA. Briefly: Luciferase reporter linked replication assay with the clemizole-resistant R214Q mutant. The conditions noted are these: Hepatitis C virus, read-out: EC50 on the R214Q mutant. It counts as cell-based.
For data set [9] the following is noted: guinea pig; cited from earlier work.
Data set [10] concerns the target HuR binding to the 3′ terminus of the negative HCV RNA strand (Homo sapiens, UniProt Q15717). As to the kind of experiment: Specificity: HuR binding to the 3′ terminus of the negative HCV RNA strand. The conditions noted are these: hits at 0.1 mM. On the procedure: Specificity of hits identified in the small molecule screen: To determine the specificity of the hits identified in the small molecule screen, the HuR protein (one of the human RNA binding protein used to validate our RNA binding assay) was selected. […] Binding of HuR to the consensus 4A RNA sequence was tested in the presence of the inhibitory molecules shown to inhibit RNA binding by NS4B. […] Similarly, 0.1 mM of the identified compounds didn't have an inhibitory effect on binding of HuR to the 3′ terminus of the negative HCV RNA strand.

Setting [11] is: read-out: AV (HCV RNA replication, percent of normal activity remaining).
Where [12] appears, read: read-out: AV score (binned residual HCV replication).
[13] abbreviates: 3 patients, clemizole 100 mg po BID monotherapy.
Where [14] appears, read: 40 to 160 mg/day, 1 to 12 weeks.

Molecules are shown by their SMILES. Entries after “also recorded” stand apart in the source; their conditions may differ. Structures can show the parent of a compound that is named as a salt. Where two headings read alike, the source gives them in different places.

Turning to `Cc1nc2ccccc2n1Cc1ccc(Br)cc1`, the results for the activity at 5 µM in data set [1] (setting [11]) and in data set [1] (setting [12]) were 3% and 10 to 30%, respectively. The results for the activity at 10 µM in data set [1] (setting [11]) and in [1] (setting [12]) were 2% and 10 to 30%, respectively.

As to `Clc1ccc(Cn2c(CN3CCCC3)nc3ccccc32)cc1` [drawing 415], in [2], the viability (commonly a read-out of living cells in per cent, often relative to untreated cells) at 72 h, 5 µM amounted to 107% and the viability at 72 h, 10 µM stood at 93%. Also, in data set [1] (setting [11]), the activity at 5 µM is 62% and the activity at 10 µM is 37%. In data set [1] (setting [12]), the activity at 5 µM is 60 to 90% and the activity at 10 µM lay within 30 to 60%.

In the case of `COc1ccc(Cn2cnc3ccccc32)cc1`, the results for the activity at 5 µM in data set [1] (setting [11]) and in data set [1] (setting [12]) were 70% and 60 to 90%, respectively. The activity at 10 µM in data set [1] (setting [11]) is 58%; in [1] (setting [12]) it was 30 to 60%.

As to `Cc1nc2cc(Cl)ccc2n1Cc1ccccc1`, in [1] (setting [11]), the activity at 5 µM turned out to be 87% and the activity at 10 µM turned out to be 60%. In addition, in data set [1] (setting [12]), the activity at 5 µM lay in the range of 60 to 90% and the activity at 10 µM is 60 to 90%.

On to `Clc1ccc(Cn2c(CN3CCCC3)nc3ccccc32)cc1` [clemizole], for which, in the data set with HCV (genotype 4) (setting [13]), the “HCV viral load at week 2” value is recorded as “drops in HCV viral load” and the “HCV viral load at week 4” value is given as “nearly at or below the limit of HCV detection; also recorded: completely, or nearly, undetectable”. Besides, the “HCV viral load after 8 weeks” value with HCV (genotype 4) (4 weeks clemizole monotherapy plus 4 weeks clemizole with standard dose pegylated interferon) is listed as “below the limit of detection”. In [3], the “drowsiness, share of the patients treated (Zierz and Greither)” value is reported as 1.3%. Also, in [4] (setting [14]), the “patients reporting excellent relief of itching” value is 66% and the “patients reporting good relief of itching” value was 23%. The “patients with mild side effects (drowsiness most common)” value in [4] (human, in vivo) is on record as 4 patients. For the same compound, the “reduction of RNA binding of W55R NS4B mutant” value in data set [5] is around 2 fold. Also, in [6], the “HCV replication levels by real-time PCR” value is “inhibits HCV replication”. The “replication of W55R mutant in presence of clemizole” value in the data set with W55R mutant J6/JFH RNA (10 μM clemizole, whole cell RNA (colonies) or in vitro-transcribed luciferase RNA) is on record as “unaffected”. Moreover, the EC50 with W55R mutant J6/JFH RNA (Hepatitis C virus, read-out: EC50 on the W55R mutant J6/JFH RNA) is around 18 µM. The “toxicity to the cell in real-time PCR experiment” value with Huh7.5 cells is “no measurable toxicity to the cell”. Moreover, the “effect on binding of HuR to 4A RNA” value in data set [7] was “No inhibitory effect”. Also, the “effect of adding clemizole to NS3 protease inhibitor SCH503034 on HCV replication” value in data set [1] (SCH503034 1-5 micromolar, 72 hours) was “increase the inhibition of HCV replication in a dose-dependent manner by up to several logs”. For the same compound, the IC50 (usually the point on the concentration scale where inhibition reaches its midpoint) in data set [8] is around 0.024 µM. The “reduction of RNA binding of wild type NS4B” value in data set [8] (in the presence of 10 nM clemizole) is around 2 fold. Also, the EC50 with R214Q mutant HCV RNA amounted to 40.3 µM. Also, the “prevention of histamine-induced asthma” value in data set [9] was “superior to atropine and other antihistamines in preventing histamine-induced asthma”.

With `Cc1ccc(Cn2cnc3ccccc32)cc1`, the activity at 5 µM was 49% in data set [1] (setting [11]) and 30 to 60% in data set [1] (setting [12]). Moreover, the activity at 10 µM was 23% in [1] (setting [11]) and 10 to 30% in data set [1] (setting [12]).

With `O=C(O)C1=CC(=C(c2ccc(O)c(C(=O)O)c2)c2ccc(O)c(C(=O)O)c2)C=CC1=O` [ATA, Aurintricarboxilic acid], the “effect on binding of HuR to 4A RNA” value in [7] was “significantly inhibited; also recorded: affected”. Further, in [10], the “effect on binding of HuR to the 3′ terminus of the negative HCV RNA strand” value was “significantly inhibited”.

As to `OCc1nc2ccccc2n1Cc1ccc(Br)cc1`, in [1] (setting [12]), the activity at 5 µM fell in the range of 30 to 60% and the activity at 10 µM lay in the range of 10 to 30%. Also, in data set [1] (setting [11]), the activity at 10 µM came out at 28%.

With `Cc1cc2ncn(Cc3ccc(Cl)cc3Cl)c2cc1C`, the activity at 5 µM is 30% in [1] (setting [11]) and 10 to 30% in data set [1] (setting [12]). Besides, the results for the activity at 10 µM in [1] (setting [11]) and in data set [1] (setting [12]) were 8% and 10 to 30%, respectively.

Turning to `Clc1ccc(Cn2c(CN3CCCC3)nc3ccccc32)cc1` [Clemizole hydrochloride, clemizole hydrochloride, reference compound], in data set [1] (20 μM, 72 hr), the “decrease in viral replication” value is on record as “tenfold”.

With `Brc1ccc(Cn2cnc3ccccc32)cc1`, the results for the activity at 5 µM in [1] (setting [11]) and in data set [1] (setting [12]) were 23% and 10 to 30%, respectively. For the same compound, the activity at 10 µM in data set [1] (setting [11]) was 8%; in data set [1] (setting [12]), 10 to 30%.

As for `CC(C)(C)c1ccc(Cn2cnc3ccccc32)cc1`, in data set [1] (setting [11]), the activity at 5 µM amounted to 30% and the activity at 10 µM is 12%. For the same compound, in data set [1] (setting [12]), the activity at 5 µM is 10 to 30% and the activity at 10 µM is 10 to 30%.

For `COC(=O)c1ccc(Cn2cnc3ccccc32)cc1`, in data set [1] (setting [11]), the activity at 5 µM came out at 74% and the activity at 10 µM is 54%. For the same compound, in [1] (setting [12]), the activity at 5 µM was in the range of 60 to 90% and the activity at 10 µM was 30 to 60%.
